The record followed here is ChEMBL document CHEMBL1156989, “Discovery of novel small molecule orally bioavailable C-X-C chemokine receptor 4 antagonists that are potent inhibitors of T-tropic (X4) HIV-1 replication” (J Med Chem, 2010).

Molecules are shown by their SMILES.

Data set [1] deals with T1, C-X-C chemokine receptor type 2 (Homo sapiens, UniProt P25025).
T1 sequence (P25025 whole entry): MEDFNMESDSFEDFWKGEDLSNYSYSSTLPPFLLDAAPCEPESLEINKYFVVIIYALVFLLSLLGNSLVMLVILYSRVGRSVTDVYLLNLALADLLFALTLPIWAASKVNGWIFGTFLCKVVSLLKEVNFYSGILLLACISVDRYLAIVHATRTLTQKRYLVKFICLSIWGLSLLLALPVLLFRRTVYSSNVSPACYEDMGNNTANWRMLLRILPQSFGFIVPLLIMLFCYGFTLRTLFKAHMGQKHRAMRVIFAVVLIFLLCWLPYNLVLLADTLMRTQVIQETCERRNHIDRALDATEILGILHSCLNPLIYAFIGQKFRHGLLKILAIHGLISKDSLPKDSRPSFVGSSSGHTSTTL
Description: Displacement of radiolabeled IL8 from CXCR2 receptor.

For data set [2], the system named is Human immunodeficiency virus 1. Description: Antiviral activity against HIV1 NL4.3 infected in human PBMC assessed as inhibition of virus-induced cytopathicity. It counts as functional, organism-based. To be noted: Human immunodeficiency virus 1, NL4.3. (Damage to the host cells serves as the signal in cytopathic effect assays.)
Data set [3] has as its target C-C chemokine receptor type 5 (Homo sapiens, UniProt P51681). As to the kind of experiment: Displacement of radiolabeled MIP1beta from CCR5 receptor.
Data set [4] deals with T2, C-X-C chemokine receptor type 1 (Homo sapiens, UniProt P25024).
T2 sequence (P25024 whole entry): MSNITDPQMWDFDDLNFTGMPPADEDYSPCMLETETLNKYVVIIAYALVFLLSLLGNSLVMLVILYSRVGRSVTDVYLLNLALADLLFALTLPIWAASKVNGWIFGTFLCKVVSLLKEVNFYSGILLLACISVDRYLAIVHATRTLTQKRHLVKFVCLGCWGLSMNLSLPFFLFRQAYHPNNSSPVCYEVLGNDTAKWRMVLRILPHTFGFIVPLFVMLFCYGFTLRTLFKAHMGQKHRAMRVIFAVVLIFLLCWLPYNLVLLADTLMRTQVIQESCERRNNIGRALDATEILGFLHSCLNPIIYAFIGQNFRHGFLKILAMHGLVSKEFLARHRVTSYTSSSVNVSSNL
As to the kind of experiment: Displacement of radiolabeled IL8 from CXCR1 receptor.

Data set [5] has as its target T3, C-C chemokine receptor type 4 (Homo sapiens, UniProt P51679).
T3 sequence (P51679 whole entry): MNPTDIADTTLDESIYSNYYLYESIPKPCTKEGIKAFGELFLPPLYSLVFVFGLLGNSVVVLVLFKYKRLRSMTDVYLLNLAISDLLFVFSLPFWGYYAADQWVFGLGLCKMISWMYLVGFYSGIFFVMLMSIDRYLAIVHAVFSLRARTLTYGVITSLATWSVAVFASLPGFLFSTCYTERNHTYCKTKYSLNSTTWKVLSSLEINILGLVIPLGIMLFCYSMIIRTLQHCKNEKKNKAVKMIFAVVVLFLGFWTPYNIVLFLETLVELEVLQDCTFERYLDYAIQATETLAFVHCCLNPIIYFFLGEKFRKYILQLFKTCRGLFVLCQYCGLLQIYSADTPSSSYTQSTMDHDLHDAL
As to the kind of experiment: Displacement of radiolabeled TARC from CCR4 receptor.

Data set [6] addresses C-C chemokine receptor type 2 (Homo sapiens, UniProt P41597). As to the kind of experiment: Displacement of radiolabeled MCP1 from CCR2b receptor.
The target of data set [7] is T4, C-C chemokine receptor type 1 (Homo sapiens, UniProt P32246).
T4 sequence (P32246 whole entry): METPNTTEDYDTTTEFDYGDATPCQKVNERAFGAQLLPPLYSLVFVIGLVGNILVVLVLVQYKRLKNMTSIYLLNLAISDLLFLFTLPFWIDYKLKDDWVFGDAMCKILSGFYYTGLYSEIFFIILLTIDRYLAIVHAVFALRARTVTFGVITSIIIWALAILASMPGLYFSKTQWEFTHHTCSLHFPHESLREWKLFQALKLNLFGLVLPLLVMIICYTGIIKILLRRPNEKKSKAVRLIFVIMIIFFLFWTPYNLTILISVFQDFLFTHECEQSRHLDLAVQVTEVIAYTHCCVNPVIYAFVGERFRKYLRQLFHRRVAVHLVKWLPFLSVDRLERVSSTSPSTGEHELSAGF
As to the kind of experiment: Displacement of radiolabeled MIP1alpha from CCR1 receptor.

For data set [8], the system named is Human immunodeficiency virus 1. As to the kind of experiment: Antiviral activity against HIV1 NL4.3 infected in human MT4 cells expressing CD4 and CXCR4 assessed as inhibition of virus-induced cytopathicity. Type of data set: functional, organism-based. To be noted: Human immunodeficiency virus 1, NL4.3, MT4.
For data set [9], the target named is C-X-C chemokine receptor type 4 (Homo sapiens, UniProt P61073). As to the kind of experiment: Inhibition of anti-CXCR4 12G5 monoclonal antibody to CXCR4 in human SUP-T1 cells pretreated for 30 mins by flow cytometry. Type of data set: cell-based. A general note: A flow cytometer gives signals particle by particle.
C-X-C chemokine receptor type 4, sequence (P61073 whole entry): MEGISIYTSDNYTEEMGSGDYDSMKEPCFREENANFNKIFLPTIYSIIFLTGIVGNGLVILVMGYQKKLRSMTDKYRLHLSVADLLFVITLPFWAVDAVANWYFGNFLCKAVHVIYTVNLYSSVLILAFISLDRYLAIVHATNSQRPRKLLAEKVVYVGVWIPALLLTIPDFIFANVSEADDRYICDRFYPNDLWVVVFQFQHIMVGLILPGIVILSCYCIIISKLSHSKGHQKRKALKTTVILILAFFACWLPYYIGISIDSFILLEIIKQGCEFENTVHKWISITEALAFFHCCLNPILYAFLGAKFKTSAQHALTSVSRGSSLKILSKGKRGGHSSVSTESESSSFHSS
For data set [10], the system named is Human immunodeficiency virus 1. Description: Antiviral activity against HIV1 3B infected in human MT4 cells assessed as inhibition of virus-induced cytopathicity in presence of 10% human serum. It counts as functional, organism-based. To be noted: Human immunodeficiency virus 1, 3B.
Data set [11] has as its system Human immunodeficiency virus 1. As to the kind of experiment: Antiviral activity against HIV1 NL4.3 infected in human MT4 cells assessed as inhibition of virus-induced cytopathicity in presence of 10% human serum. It counts as functional, organism-based. To be noted: Human immunodeficiency virus 1, NL4.3, MT4.
The nature of data set [12]: Cmax in rat. It counts as ADME, organism-based. To be noted: in vivo.
Data set [13] in a line: Cmax in dog. Type of data set: ADME, organism-based, Canis lupus familiaris. To be noted: in vivo.
The subject of data set [14] is Rattus norvegicus. Description: Volume of distribution in rat at 10 mg/kg, iv. Type of data set: ADME, organism-based. To be noted: in vivo. Details: dose 10 mg/kg, route intravenous.
In data set [15] the test system is Canis familiaris. Description: Volume of distribution in dog at 5 mg/kg, iv. Type of data set: ADME, organism-based, Canis lupus familiaris. Details: dose 5 mg/kg, route intravenous. To be noted: in vivo.
Data set [16] concerns Rattus norvegicus. Description: Half life in rat at 10 mg/kg, iv. Type of data set: ADME, organism-based. Details: dose 10 mg/kg, route intravenous. To be noted: in vivo.
The test system of data set [17] is Canis familiaris. As to the kind of experiment: Half life in dog at 5 mg/kg, iv. To be noted: in vivo. Also noted: dose 5 mg/kg, route intravenous. It counts as ADME, organism-based, Canis lupus familiaris.
Data set [18] can be described thus: Oral bioavailability in rat at 40 mg/kg. Type of data set: ADME, organism-based. To be noted: in vivo.
A short description of data set [19]: Oral bioavailability in dog at 25 mg/kg. To be noted: in vivo. It counts as ADME, organism-based, Canis lupus familiaris.
Data set [20] concerns Human immunodeficiency virus 1. Description: Antiviral activity against HIV1 3B infected in human MT-4 cells assessed as inhibition of virus-induced cytopathicity. To be noted: Human immunodeficiency virus 1, 3B.
In data set [21] the test system is Rattus norvegicus. Description: Volume of distribution in rat at 5 mg/kg, iv. To be noted: in vivo. Type of data set: ADME, organism-based. Details: dose 5 mg/kg, route intravenous.
Data set [22] relates to Rattus norvegicus. As to the kind of experiment: Half life in rat at 5 mg/kg, iv. Details: dose 5 mg/kg, route intravenous. To be noted: in vivo. It counts as ADME, organism-based.
The nature of data set [23]: Oral bioavailability in rat at 100 mg/kg. It counts as ADME, organism-based. To be noted: in vivo.
Data set [24] is described as follows: Oral bioavailability in dog at 6 mg/kg. Type of data set: ADME, organism-based, Canis lupus familiaris. To be noted: in vivo.
A short description of data set [25]: Cytotoxicity against human MT4 cells expressing CD4 and CXCR4 assessed as cell viability. To be noted: MT4 cells expressing CD4 and CXCR4.
Data set [26] has as its system Human immunodeficiency virus 1. As to the kind of experiment: Ratio of IC50 for HIV1 NL4.3 infected in human PBMC to IC50 for HIV1 NL4.3 infected in human MT4 cells. It counts as functional.
Data set [27] has as its system Human immunodeficiency virus 1. Description: Ratio of IC90 for HIV1 NL4.3 infected in human PBMC to IC90 for HIV1 NL4.3 infected in human MT4 cells. It counts as functional.

C-C chemokine receptor type 5, sequence (P51681 whole entry): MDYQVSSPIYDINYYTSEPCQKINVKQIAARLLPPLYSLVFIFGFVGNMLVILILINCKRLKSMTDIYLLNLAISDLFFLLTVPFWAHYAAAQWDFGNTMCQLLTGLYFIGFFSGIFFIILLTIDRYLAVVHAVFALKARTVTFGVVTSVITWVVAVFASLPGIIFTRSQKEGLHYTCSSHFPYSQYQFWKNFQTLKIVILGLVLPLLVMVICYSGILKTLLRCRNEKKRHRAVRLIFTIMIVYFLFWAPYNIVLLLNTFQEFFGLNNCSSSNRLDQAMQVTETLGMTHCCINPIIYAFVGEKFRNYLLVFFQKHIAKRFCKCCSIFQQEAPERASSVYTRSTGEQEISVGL
C-C chemokine receptor type 2, sequence (P41597 whole entry): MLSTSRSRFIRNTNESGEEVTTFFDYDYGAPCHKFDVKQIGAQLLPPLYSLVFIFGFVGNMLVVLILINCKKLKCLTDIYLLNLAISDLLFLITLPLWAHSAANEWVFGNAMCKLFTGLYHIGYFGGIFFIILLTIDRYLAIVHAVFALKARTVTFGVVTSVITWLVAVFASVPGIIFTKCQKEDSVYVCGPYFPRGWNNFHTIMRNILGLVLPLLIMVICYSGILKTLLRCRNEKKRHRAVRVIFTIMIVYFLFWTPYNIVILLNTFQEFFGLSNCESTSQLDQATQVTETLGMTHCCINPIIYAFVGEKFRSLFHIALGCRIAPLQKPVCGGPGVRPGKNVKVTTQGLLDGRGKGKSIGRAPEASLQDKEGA

As to `c1ccc(CNCc2ccc(CN(Cc3nc4ccccc4[nH]3)[C@H]3CCCc4cccnc43)cc2)nc1`, the IC50 in data set [1], in data set [3], in data set [4], in data set [5], in data set [6] and in data set [7] was > 10000 nM in each case. In addition, the IC50 (as a rule, the concentration that inhibits the measured activity by half) in [8] came to 30 nM; in data set [9], 120 nM; in [10] it was 81 nM; in data set [11], 69 nM. Besides, the IC90 (in general, the concentration needed for an effect of 90%) in data set [2] was 559 nM; in data set [20], 108 nM. The Cmax (usually the peak of the concentration-time curve) in data set [12] was 4500 ng/mL; in data set [13] it was 800 ng/mL. The distribution volume (Vd) (as a rule, the apparent volume that relates the amount in the body to the concentration in plasma or blood) turned out to be 5.5 L/kg in data set [14] and 17.5 L/kg in [15]. The t1/2 came out at 2.9 h in data set [16] and 5.7 h in data set [17]. Further, the bioavailability (commonly dose-corrected exposure relative to a reference, in per cent) in data set [18] was 48%; in [19] it was 55%.
Take `NCCCCN(Cc1nc2ccccc2[nH]1)[C@H]1CCCc2cccnc21` [MAVORIXAFOR]: the half-maximal inhibitory concentration (IC50) was > 10000 nM in data set [1]; 9 nM in [2]; > 10000 nM in [3]; > 10000 nM in [4]; > 10000 nM in data set [5]; > 10000 nM in data set [6]. In addition, the IC50 in [7] was > 10000 nM; in data set [8] it was 2 nM; in data set [11], 16 nM. The IC90 in data set [2] was 26 nM. Further, the values for the peak concentration (Cmax) in data set [12] and in data set [13] were 1200 ng/mL and 1700 ng/mL, respectively. The same molecule yielded a Vd in data set [21] of 14.3 L/kg. In data set [22], this molecule showed a t1/2 of 3.5 h. For the same molecule, the bioavailability in [23] turned out to be 22%; in data set [24], 80%.
With `c1ccc(CNCc2ccc(CN(Cc3nc4ccccc4[nH]3)C3CCCc4cccnc43)cc2)nc1` (stereo not drawn), the IC50 was determined as 277 nM in data set [2], 60 nM in data set [8], 250 nM in data set [9] and 60 nM in data set [20]. Further, the CC50 – broadly, the concentration that lowers cell viability or growth by half – in data set [25] stood at 23000 nM. Also, in [26], the “Ratio IC50” value is listed as 5. For the same molecule, the Ratio in data set [27] is listed as 4.
